The target in one experiment is dopaminergic D2 receptor (Homo sapiens, UniProt P14416). Briefly: Binding assay D2S (h), [3H]methyl-spiperone, HEK-293 cells. The arrangement: expressed in transfected cells; host or cells: HEK-293 cells. The settings on record: read-out: D2 [%]. In outline:
(§1)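 Specific ligand binding was taken as total minus non-specific binding, with the latter defined in the presence of surplus unlabelled ligand. Each compound was tested at a single 1×10^−6 M concentration.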

A further experiment concerns the target T1, adrenergic α2C receptor (Homo sapiens, UniProt P18825).
T1 sequence (P18825 1-462): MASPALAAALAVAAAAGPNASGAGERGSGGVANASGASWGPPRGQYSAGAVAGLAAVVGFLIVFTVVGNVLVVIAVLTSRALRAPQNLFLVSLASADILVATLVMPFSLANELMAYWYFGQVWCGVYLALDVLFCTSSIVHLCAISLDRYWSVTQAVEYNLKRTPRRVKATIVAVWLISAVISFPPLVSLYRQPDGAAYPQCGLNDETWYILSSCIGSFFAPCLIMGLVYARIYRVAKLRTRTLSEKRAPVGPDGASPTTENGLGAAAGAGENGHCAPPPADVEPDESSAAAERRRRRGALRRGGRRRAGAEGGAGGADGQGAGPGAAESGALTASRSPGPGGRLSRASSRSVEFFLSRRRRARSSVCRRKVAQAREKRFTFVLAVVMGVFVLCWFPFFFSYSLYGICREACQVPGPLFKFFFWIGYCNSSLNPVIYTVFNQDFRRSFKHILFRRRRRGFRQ
Nature of the experiment: Binding assay α2C (h), [3H]RX 821002, CHO cells. The arrangement: expressed in transfected cells; host or cells: CHO cells. The settings on record: read-out: α2C [%]. The procedure, abridged: as §1

Experiment [1] has as its target histaminergic H1 receptor (Homo sapiens, UniProt P35367). Briefly: Binding assay H1 (h), [3H]pyrilamine, HEK-293 cells. The arrangement: expressed in transfected cells; host or cells: HEK-293 cells. The settings on record: read-out: H1 [%]. In outline:
as §1

A further experiment has as its system sigma σ receptor. Nature of the experiment: Binding assay σ (non-selective), [3H]DTG, rat cerebral cortex. Conditions: percent inhibition of control specific binding; compounds tested at 1×10^−6 M. In outline: as §1
In another experiment the target is dopaminergic D3 receptor (Homo sapiens, UniProt P35462). Briefly: Binding assay D3 (h), [3H]methyl-spiperone, CHO cells. The arrangement: expressed in transfected cells; host or cells: CHO cells. The settings on record: read-out: D3 [%]. In outline: as §1
Sequence of dopaminergic D3 receptor (P35462 whole entry): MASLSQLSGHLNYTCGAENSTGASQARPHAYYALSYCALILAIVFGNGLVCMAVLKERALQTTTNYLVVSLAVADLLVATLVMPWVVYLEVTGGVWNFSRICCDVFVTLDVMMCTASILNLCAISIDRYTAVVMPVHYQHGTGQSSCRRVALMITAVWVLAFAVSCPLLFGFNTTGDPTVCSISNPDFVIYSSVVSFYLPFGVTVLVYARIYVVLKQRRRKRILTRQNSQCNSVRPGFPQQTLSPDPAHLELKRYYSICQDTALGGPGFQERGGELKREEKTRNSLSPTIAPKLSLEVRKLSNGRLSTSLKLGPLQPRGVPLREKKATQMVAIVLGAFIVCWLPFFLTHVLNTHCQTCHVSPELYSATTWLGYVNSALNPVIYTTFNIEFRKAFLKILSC
The target in experiment [2] is T2, serotonine transporter (SERT) receptor (Homo sapiens, UniProt P31645).
T2 construct: expressed in transfected cells; host or cells: CHO cells
T2 sequence (P31645 whole entry): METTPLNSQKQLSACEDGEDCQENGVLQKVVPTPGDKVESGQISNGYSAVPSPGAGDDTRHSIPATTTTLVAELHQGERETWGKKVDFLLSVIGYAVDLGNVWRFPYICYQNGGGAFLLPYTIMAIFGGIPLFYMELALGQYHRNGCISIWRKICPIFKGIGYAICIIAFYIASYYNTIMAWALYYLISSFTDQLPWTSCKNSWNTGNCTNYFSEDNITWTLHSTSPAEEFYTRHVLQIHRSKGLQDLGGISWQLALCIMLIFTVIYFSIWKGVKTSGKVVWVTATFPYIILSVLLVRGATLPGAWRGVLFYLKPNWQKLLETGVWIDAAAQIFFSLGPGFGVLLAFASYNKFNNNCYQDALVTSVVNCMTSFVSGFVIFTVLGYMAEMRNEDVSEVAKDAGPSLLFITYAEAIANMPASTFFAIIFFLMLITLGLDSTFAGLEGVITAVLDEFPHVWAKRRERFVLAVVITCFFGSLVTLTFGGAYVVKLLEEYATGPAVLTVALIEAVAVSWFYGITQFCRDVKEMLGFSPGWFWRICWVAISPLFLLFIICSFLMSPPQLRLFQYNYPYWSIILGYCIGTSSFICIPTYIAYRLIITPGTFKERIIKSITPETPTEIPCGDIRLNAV
Nature of the experiment: Binding assay SERT (h), [3H]imipramine, CHO cells. Conditions: read-out: SERT [%]. The procedure, abridged:
as §1

Experiment [3] concerns the target serotoninergic 5-HT7 receptor (Homo sapiens, UniProt P34969). Briefly: Binding assay 5-HT7 (h), [3H]LSD, CHO cells. Also noted: expressed in transfected cells; host or cells: CHO cells. Conditions: read-out: 5-HT7. In outline: as §1
Experiment [4] has as its target T3, serotoninergic 5-HT1A receptor (Homo sapiens, UniProt P08908).
T3 sequence (P08908 1-422): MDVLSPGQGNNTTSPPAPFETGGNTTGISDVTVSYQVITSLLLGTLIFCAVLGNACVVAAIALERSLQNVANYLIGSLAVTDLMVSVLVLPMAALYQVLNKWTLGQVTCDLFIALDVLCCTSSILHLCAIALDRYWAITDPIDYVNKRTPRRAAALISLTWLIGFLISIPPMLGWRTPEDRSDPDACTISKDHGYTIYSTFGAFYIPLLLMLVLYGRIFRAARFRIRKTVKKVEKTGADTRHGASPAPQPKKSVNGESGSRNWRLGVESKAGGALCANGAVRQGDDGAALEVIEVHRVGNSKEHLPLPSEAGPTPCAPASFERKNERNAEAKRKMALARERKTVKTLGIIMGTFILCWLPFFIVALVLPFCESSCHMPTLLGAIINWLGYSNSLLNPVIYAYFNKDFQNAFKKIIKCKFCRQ
Nature of the experiment: Binding assay 5-HT1A (h), [3H]8-OH-DPAT, HEK-293 cells. Also noted: expressed in transfected cells; host or cells: HEK-293 cells. The settings on record: read-out: 5-HT1A. The procedure, abridged: as §1

Experiment [5] has as its target serotoninergic 5-HT6 receptor (Homo sapiens, UniProt P50406). Nature of the experiment: Binding assay 5-HT6 (h), [3H]LSD, CHO cells. Also noted: expressed in transfected cells; host or cells: CHO cells. Conditions: read-out: 5-HT6. In outline:
as §1

The target in experiment [6] is serotoninergic 5-HT2A receptor (Homo sapiens, UniProt P28223). Nature of the experiment: Binding assay 5-HT2A (h), [3H]ketanserin, HEK-293 cells. Also noted: expressed in transfected cells; host or cells: HEK-293 cells. The settings on record: read-out: 5-HT2A. The procedure, abridged: as §1
Sequence of serotoninergic 5-HT2A receptor (P28223 whole entry): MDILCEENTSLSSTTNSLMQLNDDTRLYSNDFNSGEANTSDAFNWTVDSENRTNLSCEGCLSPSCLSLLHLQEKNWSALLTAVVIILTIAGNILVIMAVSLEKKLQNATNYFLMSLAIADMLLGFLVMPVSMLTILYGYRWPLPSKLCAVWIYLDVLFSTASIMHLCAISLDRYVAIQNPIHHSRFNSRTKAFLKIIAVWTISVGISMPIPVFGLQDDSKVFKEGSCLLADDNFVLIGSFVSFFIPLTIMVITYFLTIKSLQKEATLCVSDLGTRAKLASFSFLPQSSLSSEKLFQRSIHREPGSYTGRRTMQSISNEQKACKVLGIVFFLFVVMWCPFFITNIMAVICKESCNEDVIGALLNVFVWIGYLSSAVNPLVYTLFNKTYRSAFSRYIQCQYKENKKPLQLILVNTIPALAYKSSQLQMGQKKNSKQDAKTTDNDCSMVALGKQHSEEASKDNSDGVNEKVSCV
The next experiment relates to adrenergic α1 receptor. Briefly: Binding assay α1 (non-selective), [3H]prazosin, rat cerebral cortex. The settings on record: percent inhibition of control specific binding; compounds tested at 1×10^−6 M. The procedure, abridged: as §1
In experiment [7] the target is T4, serotoninergic receptor 5-HT2C (Homo sapiens, UniProt P28335).
T4 construct: expressed in transfected cells; host or cells: HEK-293 cells
T4 sequence (P28335 33-458): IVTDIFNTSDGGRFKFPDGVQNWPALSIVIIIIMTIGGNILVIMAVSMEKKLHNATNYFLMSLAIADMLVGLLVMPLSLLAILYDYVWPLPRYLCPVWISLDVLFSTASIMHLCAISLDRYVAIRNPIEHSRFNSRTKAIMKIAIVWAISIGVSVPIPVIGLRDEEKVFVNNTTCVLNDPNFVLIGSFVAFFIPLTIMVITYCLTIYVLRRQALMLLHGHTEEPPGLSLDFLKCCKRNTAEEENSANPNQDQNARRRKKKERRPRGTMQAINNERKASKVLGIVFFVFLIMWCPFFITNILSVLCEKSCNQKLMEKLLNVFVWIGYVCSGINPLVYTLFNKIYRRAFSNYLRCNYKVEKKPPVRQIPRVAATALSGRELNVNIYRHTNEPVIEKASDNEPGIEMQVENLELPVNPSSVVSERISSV
Nature of the experiment: Binding assay 5-HT2C (h), [3H]mesulergine, HEK-293 cells. The settings on record: read-out: 5-HT2C [%]. The procedure, abridged: as §1

The target in a further experiment is T5, muscarinic M3 receptor (Homo sapiens, UniProt P20309).
T5 construct: expressed in transfected cells; host or cells: CHO cells
T5 sequence (P20309 whole entry): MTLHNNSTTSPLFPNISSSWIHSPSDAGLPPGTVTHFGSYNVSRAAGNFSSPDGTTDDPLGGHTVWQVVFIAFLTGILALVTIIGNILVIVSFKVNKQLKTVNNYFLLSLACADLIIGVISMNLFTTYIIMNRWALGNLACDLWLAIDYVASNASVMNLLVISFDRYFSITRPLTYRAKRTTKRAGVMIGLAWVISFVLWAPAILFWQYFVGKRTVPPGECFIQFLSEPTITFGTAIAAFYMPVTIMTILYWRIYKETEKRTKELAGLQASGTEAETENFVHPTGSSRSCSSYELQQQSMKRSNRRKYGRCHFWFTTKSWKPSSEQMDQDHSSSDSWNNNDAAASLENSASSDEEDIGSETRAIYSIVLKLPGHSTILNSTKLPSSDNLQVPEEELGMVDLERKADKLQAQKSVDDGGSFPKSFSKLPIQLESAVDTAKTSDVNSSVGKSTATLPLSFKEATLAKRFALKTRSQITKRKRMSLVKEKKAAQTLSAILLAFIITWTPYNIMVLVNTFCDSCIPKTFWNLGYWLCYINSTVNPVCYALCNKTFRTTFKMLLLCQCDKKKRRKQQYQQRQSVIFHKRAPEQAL
Nature of the experiment: Binding assay M3 (h), [3H]4-DAMP, CHO cells. Conditions: read-out: M3 [%]. The procedure, abridged:
as §1

Sequence of serotoninergic 5-HT7 receptor (P34969 whole entry): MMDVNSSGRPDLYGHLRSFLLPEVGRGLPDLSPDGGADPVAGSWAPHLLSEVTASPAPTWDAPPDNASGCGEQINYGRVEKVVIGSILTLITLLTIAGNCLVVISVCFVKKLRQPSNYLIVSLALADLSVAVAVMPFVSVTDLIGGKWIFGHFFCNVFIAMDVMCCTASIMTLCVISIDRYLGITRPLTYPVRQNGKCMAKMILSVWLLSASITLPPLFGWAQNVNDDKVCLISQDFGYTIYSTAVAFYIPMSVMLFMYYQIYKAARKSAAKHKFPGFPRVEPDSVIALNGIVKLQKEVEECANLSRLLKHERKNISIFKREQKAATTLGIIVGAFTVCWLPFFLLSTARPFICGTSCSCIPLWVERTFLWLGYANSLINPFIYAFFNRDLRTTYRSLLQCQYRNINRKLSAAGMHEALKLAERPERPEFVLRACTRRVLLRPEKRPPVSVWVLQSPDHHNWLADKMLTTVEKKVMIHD
Sequence of dopaminergic D2 receptor (P14416 1-414 isoform P14416-2): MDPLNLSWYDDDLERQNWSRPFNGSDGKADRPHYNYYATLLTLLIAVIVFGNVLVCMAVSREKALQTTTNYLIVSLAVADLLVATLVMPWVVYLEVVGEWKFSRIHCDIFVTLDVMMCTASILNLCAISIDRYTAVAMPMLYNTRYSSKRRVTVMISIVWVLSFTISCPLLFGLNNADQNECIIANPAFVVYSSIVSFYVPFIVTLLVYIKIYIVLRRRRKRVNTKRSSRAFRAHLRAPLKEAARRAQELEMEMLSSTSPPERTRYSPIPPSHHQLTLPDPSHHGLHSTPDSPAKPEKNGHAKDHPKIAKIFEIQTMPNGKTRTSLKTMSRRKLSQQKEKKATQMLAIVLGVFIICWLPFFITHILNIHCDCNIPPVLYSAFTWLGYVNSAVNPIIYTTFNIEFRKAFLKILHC
Sequence of serotoninergic 5-HT6 receptor (P50406 whole entry): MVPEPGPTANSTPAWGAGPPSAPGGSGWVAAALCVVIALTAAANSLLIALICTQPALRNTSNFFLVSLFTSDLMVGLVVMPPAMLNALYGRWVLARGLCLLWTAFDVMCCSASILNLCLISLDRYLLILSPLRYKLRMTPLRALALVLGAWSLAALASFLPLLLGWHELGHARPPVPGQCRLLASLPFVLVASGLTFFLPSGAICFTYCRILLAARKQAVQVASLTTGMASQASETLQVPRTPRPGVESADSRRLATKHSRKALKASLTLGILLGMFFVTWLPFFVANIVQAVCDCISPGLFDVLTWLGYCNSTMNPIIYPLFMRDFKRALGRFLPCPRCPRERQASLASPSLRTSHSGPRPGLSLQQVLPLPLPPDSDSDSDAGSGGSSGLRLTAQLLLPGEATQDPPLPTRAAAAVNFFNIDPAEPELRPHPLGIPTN
Sequence of histaminergic H1 receptor (P35367 whole entry): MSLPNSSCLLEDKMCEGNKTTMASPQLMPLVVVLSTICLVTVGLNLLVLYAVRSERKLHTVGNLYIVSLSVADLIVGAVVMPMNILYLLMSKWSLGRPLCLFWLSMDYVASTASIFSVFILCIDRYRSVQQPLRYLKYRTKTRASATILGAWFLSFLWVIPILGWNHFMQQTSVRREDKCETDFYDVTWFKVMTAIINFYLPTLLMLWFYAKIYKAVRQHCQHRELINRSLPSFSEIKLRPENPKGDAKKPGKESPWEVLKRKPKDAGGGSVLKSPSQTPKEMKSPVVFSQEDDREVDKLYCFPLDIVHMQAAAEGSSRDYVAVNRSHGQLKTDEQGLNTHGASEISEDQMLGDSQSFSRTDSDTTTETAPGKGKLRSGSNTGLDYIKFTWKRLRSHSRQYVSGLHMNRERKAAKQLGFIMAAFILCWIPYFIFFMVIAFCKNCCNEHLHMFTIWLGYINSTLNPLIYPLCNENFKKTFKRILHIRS

As to `O=S(=O)(NCCCN1CCN(c2nsc3ccccc23)CC1)c1cccc(Cl)c1` [Compound 70, N-[3-[4-(1,2-Benzothiazol-3-yl)piperazin-1-yl]propyl]-3-chlorobenzenesulphonamide], the inhibition at 1 µM at dopaminergic D2 receptor was 99%; on adrenergic α2C receptor, 100%; in experiment [1], 97%; at dopaminergic D3 receptor it was 101%; in [2], 82%; in experiment [3] it was 100%. The inhibition at 1 µM was determined as 99% in [4]; 99% in [5]; 101% in experiment [6]; 88% in experiment [7]; 25% at muscarinic M3 receptor. Also, the “σ [%]” value in the experiment on sigma σ receptor is recorded as 64%. In addition, the “α1 [%]” value in the experiment on adrenergic α1 receptor turned out to be 96%.

Turning to `CC(C)(C)c1ccc(S(=O)(=O)NCCCN2CCN(c3nsc4ccccc34)CC2)cc1` [Compound 256, N-[3-[4-(1,2-Benzothiazol-3-yl)piperazin-1-yl]propyl]-4-tert-butylbenzenesulphonamide], the inhibition at 1 µM at dopaminergic D2 receptor is 97%; at adrenergic α2C receptor it was 92%; in experiment [1], 94%; on dopaminergic D3 receptor, 96%; in [2], 93%; in experiment [3] it was 100%. Moreover, the inhibition at 1 µM in [4] was 96%; in [5] it was 95%; in experiment [6] it was 102%; in experiment [7] it was 94%; at muscarinic M3 receptor it was 15%. The “σ [%]” value in the experiment on sigma σ receptor turned out to be 41%. The “α1 [%]” value with adrenergic α1 receptor is 87%.

For `N#Cc1cccc(S(=O)(=O)NCCCN2CCN(c3nsc4ccccc34)CC2)c1` [Compound 74, N-[3-[4-(1,2-Benzothiazol-3-yl)piperazin-1-yl]propyl]-3-cyanobenzenesulphonamide], the inhibition at 1 µM was 93% at dopaminergic D2 receptor; 92% at adrenergic α2C receptor; 90% in experiment [1]; 92% at dopaminergic D3 receptor; 79% in experiment [2]; 97% in [3]. The inhibition at 1 µM was determined as 99% in experiment [4]; 95% in experiment [5]; 102% in experiment [6]; 78% in experiment [7]; 17% at muscarinic M3 receptor. Further, the “σ [%]” value in the experiment with sigma σ receptor was 34%. For the same molecule, the “α1 [%]” value with adrenergic α1 receptor came out at 94%.

Turning to `O=S(=O)(NCCCCN1CCC(c2noc3cc(F)ccc23)CC1)c1cccs1` [Compound 325, N-[4-[4-(6-Fluoro-1,2-benzoxazol-3-yl)piperidin-1-yl]butyl]thiophene-2-sulphonamide], the inhibition at 1 µM on dopaminergic D2 receptor was 96%; at adrenergic α2C receptor it was 93%; in experiment [1] it was 83%; on dopaminergic D3 receptor, 95%; in experiment [2], 20%; in [3] it was 98%. Further, the inhibition at 1 µM stood at 62% in experiment [4]; 72% in [5]; 102% in experiment [6]; 49% in [7]; 26% at muscarinic M3 receptor. In the experiment with sigma σ receptor, the “σ [%]” value is reported as 85%. Besides, the “α1 [%]” value in the experiment with adrenergic α1 receptor is recorded as 95%.

As to `O=S(=O)(NCCCN1CCN(c2nsc3ccccc23)CC1)c1cccs1` [Compound 261, N-[3-[4-(1,2-Benzothiazol-3-yl)piperazin-1-yl]propyl]thiophene-2-sulphonamide], the inhibition at 1 µM at dopaminergic D2 receptor was 97%; at adrenergic α2C receptor, 92%; in experiment [1], 92%; on dopaminergic D3 receptor it was 98%; in [2] it was 60%; in experiment [3] it was 100%. Besides, the inhibition at 1 µM amounted to 98% in [4]; 83% in experiment [5]; 102% in experiment [6]; 87% in experiment [7]; 15% on muscarinic M3 receptor. Further, in the experiment on sigma σ receptor, the “σ [%]” value stood at 57%. In the experiment on adrenergic α1 receptor, the “α1 [%]” value was −90%.

As for `O=S(=O)(NCCCN1CCN(c2nsc3ccccc23)CC1)c1ccc(-c2ccccc2)cc1` [Compound 260, N-[3-[4-(1,2-Benzothiazol-3-yl)piperazin-1-yl]propyl]-4-phenylbenzenesulphonamide], the inhibition at 1 µM at dopaminergic D2 receptor amounted to 99%; on adrenergic α2C receptor, 99%; in experiment [1] it was 95%; on dopaminergic D3 receptor it was 98%; in experiment [2], 90%; in experiment [3], 100%. Also, the inhibition at 1 µM in experiment [4] came out at 96%; in experiment [5], 92%; in [6], 102%; in [7], 90%; on muscarinic M3 receptor it was 11%. Moreover, in the experiment on sigma σ receptor, the “σ [%]” value was found to be 41%. For the same molecule, the “α1 [%]” value in the experiment on adrenergic α1 receptor came out at 91%.

`Cc1c(S(=O)(=O)NCCCN2CCN(c3nsc4ccccc34)CC2)sc2ccc(F)cc12` [Compound 66, N-[3-[4-(1,2-Benzothiazol-3-yl)piperazin-1-yl]propyl]-5-fluoro-3-methylbenzothiophene-2-sulphonamide]: the inhibition at 1 µM worked out at 101% at dopaminergic D2 receptor; 103% at adrenergic α2C receptor; 99% in experiment [1]; 101% on dopaminergic D3 receptor; 93% in experiment [2]; 101% in experiment [3]. Besides, the inhibition at 1 µM stood at 98% in experiment [4]; 95% in experiment [5]; 101% in experiment [6]; 86% in [7]; 10% on muscarinic M3 receptor. The “σ [%]” value in the experiment with sigma σ receptor is recorded as 61%. Further, the “α1 [%]” value with adrenergic α1 receptor worked out at 93%.
